Test results published in patent US7317115B2, “Mandelates salts of substituted tetracyclic tetrahydrofuran derivatives” (Janssen Pharmaceutica, N.V., priority 2001, dated 2008).
“Also recorded” adds a separate entry of the source.

Columns and labels:
Assay type in all cases: physicochemical
[1] = Chemical stability (HPLC and visual inspection after storage); conditions: for HPLC Sum of impurities: in % (unit assumed); for chemical stability: storage 2, 4 and 8 weeks under different conditions
Procedure: In the chemical stability test program the salts are stored for periods of 2, 4 and 8 weeks under different conditions. These conditions are 40° C./75% RH, 50° C., daylight, RT/5% RH, RT/75% RH, 25° C./60% RH and artificial light. The mandelate salt and the ditoluoyltartrate salt are also stored 8 hours in 0.3 da ICH light. The compounds are analyzed after storage by HPLC and by visual inspection.

[2] = Adsorption and desorption of water; conditions: 25° C., different relative humidity
Procedure: The adsorption and desorption of water at 25° C. at different conditions of relative humidity is investigated on an amount of ±10 mg of each salt. The weight change as a function of relative humidity is registered.

[3] = Crystallographic stability (TGA, DSC, IR after storage); conditions: for crystallographic stability: storage two weeks under different relative humidities; on IR: key: ~Ref: identical with reference
Procedure: The stability of the crystal structure of the salt is studied after storage of the compounds for a period of two weeks at room temperature (RT) under either 5%, 75% and 25° C./60% relative humidity (RH). The samples are analyzed with thermogravimetry (TGA), differential scanning calorimetry (DSC) and infrared spectroscopy (IR).

[4] = 0.3 da ICH light (2 weeks column; text: 8 hours)
[5] = listed as (+)ditoluoyltartrate salt

CNCC1CC2c3ccccc3Cc3ccc(F)cc3C2O1.O=C(O)C(O)c1ccccc1 (single isomer, unassigned) [Compound 1, B-(2α,3aα,12bβ)-11-fluoro-3,3a,8,12b-tetrahydro-N-methyl-2H-dibenzo-[3,4:6,7]cyclohepta[1,2-b]furan-2 methanamine]
Appearance [1, 4]: white
HPLC Sum of impurities [1, 4]: 1.70
Appearance ([1]; 25° C./60% RH, 4 weeks): white
HPLC Sum of impurities ([1]; 25° C./60% RH, 4 weeks): 1.71
Appearance ([1]; 25° C./60% RH, 8 weeks): white
HPLC Sum of impurities ([1]; 25° C./60% RH, 8 weeks): 1.69
Appearance ([1]; 40° C./75% RH, 2 weeks): white
HPLC Sum of impurities ([1]; 40° C./75% RH, 2 weeks): 1.73
Appearance ([1]; 40° C./75% RH, 4 weeks): white
HPLC Sum of impurities ([1]; 40° C./75% RH, 4 weeks): 1.73
Appearance ([1]; 40° C./75% RH, 8 weeks): white
HPLC Sum of impurities ([1]; 40° C./75% RH, 8 weeks): 1.70
Appearance ([1]; 50° C., 2 weeks): white
HPLC Sum of impurities ([1]; 50° C., 2 weeks): 1.74
Appearance ([1]; 50° C., 4 weeks): white
HPLC Sum of impurities ([1]; 50° C., 4 weeks): 1.75
Appearance ([1]; 50° C., 8 weeks): white
HPLC Sum of impurities ([1]; 50° C., 8 weeks): 1.70
Appearance ([1]; Artificial light (2 weeks)): white
HPLC Sum of impurities ([1]; Artificial light (2 weeks)): 1.70
Appearance ([1]; Daylight, 2 weeks): white
HPLC Sum of impurities ([1]; Daylight, 2 weeks): 1.73
Appearance ([1]; Daylight, 4 weeks): white
HPLC Sum of impurities ([1]; Daylight, 4 weeks): 1.71
Appearance ([1]; Daylight, 8 weeks): white
HPLC Sum of impurities ([1]; Daylight, 8 weeks): 1.72
Appearance ([1]; RT/75% RH, 4 weeks): white
HPLC Sum of impurities ([1]; RT/75% RH, 4 weeks): 1.75
Appearance ([1]; RT/75% RH, 8 weeks): white
HPLC Sum of impurities ([1]; RT/75% RH, 8 weeks): 1.76
Appearance ([1]; RT/<5% RH, 4 weeks): white
HPLC Sum of impurities ([1]; RT/<5% RH, 4 weeks): 1.73
Appearance ([1]; RT/<5% RH, 8 weeks): white
HPLC Sum of impurities ([1]; RT/<5% RH, 8 weeks): 1.72
Appearance ([1]; Reference (2 weeks)): white
HPLC Sum of impurities ([1]; Reference (2 weeks)): 1.72
chemical stability ([1]; listed as mandelate salt): chemically stable in all investigated conditions; also recorded: crystallographically and chemically stable
water adsorption/desorption behaviour (weight change as a function of relative humidity) ([2]; listed as mandelate salt): stable towards moisture uptake over the whole range of humidity; also recorded: good adsorption/desorption profile
Appearance ([3]; 0 days): white
DSC Max ([3]; 0 days): 229.5 °C
DSC ΔH ([3]; 0 days): 141.1 J/g
TGA <100° C. ([3]; 0 days): 0.1%
crystallographic stability ([3]; listed as mandelate salt): crystallographically and chemically stable
crystallographic stability ([3]; listed as mandelic acid salt): crystallographic stable
Appearance ([3]; two weeks, 25° C./60% RH): white
DSC Max ([3]; two weeks, 25° C./60% RH): 229.1 °C
DSC ΔH ([3]; two weeks, 25° C./60% RH): 139.0 J/g
IR ([3]; two weeks, 25° C./60% RH): ~Ref
TGA <100° C. ([3]; two weeks, 25° C./60% RH): 0.1%
Appearance ([3]; two weeks, RT/75% RH): white
DSC Max ([3]; two weeks, RT/75% RH): 229.4 °C
DSC ΔH ([3]; two weeks, RT/75% RH): 137.6 J/g
IR ([3]; two weeks, RT/75% RH): ~Ref
TGA <100° C. ([3]; two weeks, RT/75% RH): 0.1%
Appearance ([3]; two weeks, RT/<5% RH): white
DSC Max ([3]; two weeks, RT/<5% RH): 229.1 °C
DSC ΔH ([3]; two weeks, RT/<5% RH): 140.2 J/g
IR ([3]; two weeks, RT/<5% RH): ~Ref
TGA <100° C. ([3]; two weeks, RT/<5% RH): 0.1%

CNCC1CC2c3ccccc3Cc3ccc(F)cc3C2O1.O=C(O)CC(=O)O (single isomer, unassigned) [malonate salt, B-(2α,3aα,12bβ)-11-fluoro-3,3a,8,12b-tetrahydro-N-methyl-2H-dibenzo-[3,4:6,7]cyclohepta[1,2-b]furan-2 methanamine]
water adsorption/desorption behaviour (weight change as a function of relative humidity) [2]: less stable but the weight change as a function of the relative humidity is very small

B-(2α,3aα,12bβ)-11-fluoro-3,3a,8,12b-tetrahydro-N-methyl-2H-dibenzo-[3,4:6,7]cyclohepta[1,2-b]furan-2 methanamine [(+)ditoluoyltartrate]
Appearance [1, 4]: white
HPLC Sum of impurities [1, 4]: 1.41
Appearance ([1]; 40° C./75% RH, 2 weeks): white
HPLC Sum of impurities ([1]; 40° C./75% RH, 2 weeks): 0.98
Appearance ([1]; 40° C./75% RH, 4 weeks): white
HPLC Sum of impurities ([1]; 40° C./75% RH, 4 weeks): 1.00
Appearance ([1]; 40° C./75% RH, 8 weeks): white
HPLC Sum of impurities ([1]; 40° C./75% RH, 8 weeks): 1.09
Appearance ([1]; 50° C., 2 weeks): white
HPLC Sum of impurities ([1]; 50° C., 2 weeks): 1.06
Appearance ([1]; 50° C., 4 weeks): white
HPLC Sum of impurities ([1]; 50° C., 4 weeks): 1.22
Appearance ([1]; 50° C., 8 weeks): white
HPLC Sum of impurities ([1]; 50° C., 8 weeks): 1.25
Appearance ([1]; Artificial light (2 weeks)): white
HPLC Sum of impurities ([1]; Artificial light (2 weeks)): 1.57
Appearance ([1]; Daylight, 2 weeks): white
HPLC Sum of impurities ([1]; Daylight, 2 weeks): 1.26
Appearance ([1]; Daylight, 4 weeks): white
HPLC Sum of impurities ([1]; Daylight, 4 weeks): 1.65
Appearance ([1]; Daylight, 8 weeks): white-yellow
HPLC Sum of impurities ([1]; Daylight, 8 weeks): 1.74
Appearance ([1]; Reference (2 weeks)): white
HPLC Sum of impurities ([1]; Reference (2 weeks)): 1.01
chemical stability [1, 5]: shows a sensitivity towards temperature and light
water adsorption/desorption behaviour (weight change as a function of relative humidity) [2, 5]: less stable but the weight change as a function of the relative humidity is very small; also recorded: good adsorption desorption profile
Appearance ([3]; 0 days): white
DSC Max ([3]; 0 days): 173.7 °C
DSC ΔH ([3]; 0 days): 71.9 J/g
TGA <100° C. ([3]; 0 days): 0.2%
crystallographic stability [3, 5]: crystallographic stable; also recorded: crystallographically stable
Appearance ([3]; two weeks, 25° C./60% RH): white
DSC Max ([3]; two weeks, 25° C./60% RH): 177.6 °C
DSC ΔH ([3]; two weeks, 25° C./60% RH): 74.7 J/g
IR ([3]; two weeks, 25° C./60% RH): ~Ref
TGA <100° C. ([3]; two weeks, 25° C./60% RH): 0.1%
Appearance ([3]; two weeks, RT/75% RH): white
DSC Max ([3]; two weeks, RT/75% RH): 178.6 °C
DSC ΔH ([3]; two weeks, RT/75% RH): 70.8 J/g
IR ([3]; two weeks, RT/75% RH): ~Ref
TGA <100° C. ([3]; two weeks, RT/75% RH): 0.2%
Appearance ([3]; two weeks, RT/<5% RH): white
DSC Max ([3]; two weeks, RT/<5% RH): 175.6 °C
DSC ΔH ([3]; two weeks, RT/<5% RH): 78.7 J/g
IR ([3]; two weeks, RT/<5% RH): ~Ref
TGA <100° C. ([3]; two weeks, RT/<5% RH): 0.3%

CNCC1CC2c3ccccc3Cc3ccc(F)cc3C2O1.O=C(O)CCC(=O)O (single isomer, unassigned) [succinate salt, B-(2α,3aα,12bβ)-11-fluoro-3,3a,8,12b-tetrahydro-N-methyl-2H-dibenzo-[3,4:6,7]cyclohepta[1,2-b]furan-2 methanamine]
water adsorption/desorption behaviour (weight change as a function of relative humidity) [2]: less stable but the weight change as a function of the relative humidity is very small
